Results from patent publication US20250290117A1, “MOLECULAR PHENOTYPIC ANTIMICROBIAL SUSCEPTIBILITY TESTING” (priority 2024, published 2025).

Experiments:
M. morganii = assay: Molecular phenotypic antimicrobial susceptibility test, specimen with two detected pathogens incubated together without isolation; assay type: cell-based, Morganella morganii; details: M. morganii in specimen with two detected pathogens (E. coli and M. morganii) incubated together; for Ct of Sensitive Breakpoint: Ct of controls (average) 19.99; for Molecular Antimicrobial Susceptibility Result: at sensitive breakpoint
Procedure: (§1) Detection of Molecular Phenotypic Antimicrobial Susceptibility. Disclosed herein are the methods for the detection of phenotypic antimicrobial susceptibility via molecular methods. The present invention describes how a specimen 100 with a known microbial load is incubated and then exposed to a panel of antimicrobial agents to determine sensitivity (prevention of growth) or resistance (allowance of growth) to the specific antimicrobial agents tested utilizing molecular methods.
(§2) Sample Collection. Specimens 100 are collected from patients using sterile collection processes that are employed in routine clinical care. Specimens are transported to the testing facility in boric acid preservative. Specimens 100 are subsequently divided into a first sample 104 and a second sample 108.
(§3) Preparation of the Specimens for Testing. The specimens 100 are put through a pathogen identification process using PCR technology (e.g., using the first sample 104). The process for pathogen isolation includes steps of harvesting the pathogen (e.g., via centrifugation), isolating pathogen DNA via a DNA isolation and/or purification kit, and performing PCR on the pathogen DNA via PCR components (e.g., primers, enzymes, buffers) as would be known to the skilled artisan. Simultaneously, an additional aliquot of the same specimen (e.g., the second sample 108) is placed with liquid culture media and incubated for 4-6 hours. This aliquot is used for antimicrobial susceptibility testing if indicated based on the pathogen detection results. After pathogen identification is completed and if more than 10,000 cells/mL of bacteria (e.g., eligible bacteria) are detected in the source specimen, the second sample 108 then enters the antimicrobial susceptibility phase of testing. Specimens 100 with lower pathogen loads could also be utilized in the antibiotic susceptibility phase of testing with or without a longer incubation period.
(§4) Preparation of Antimicrobial Susceptibility Testing Plates. Antimicrobial solutions are prepared at known concentrations. The specific antimicrobials and their concentrations are selected based on the pathogen of interest and the described antimicrobial resistance breakpoints for that specimen pathogen and antimicrobial combination. These antimicrobials have been selected based on those commonly utilized by healthcare providers in routine clinical care for the specific type of suspected infection. The number and types of antimicrobials utilized can be customized based on the infection source, pathogen detected, patient-specific factors such as allergies or other health conditions (e.g., chronic kidney disease or concurrent medication use), or healthcare provider preferences such as antimicrobial availability or cost.
(§5) The antimicrobial solutions are prepared in liquid culture media (such as Muller Hinton Broth) to achieve the desired antimicrobial concentration and are then stored at −80° C. until use. For a given specimen, each antimicrobial is tested at a single or multiple antimicrobial concentration(s) which is its established breakpoints for sensitivity. The antimicrobial solutions are prepared and plated out for each specific pathogen. This allows ease of use on the day of testing after defrosting the plate 112. Table 1, which illustrates the results of molecular phenotypic antimicrobial susceptibility testing when more than one organism is present in the source specimen, provides an example of an antimicrobial plate 112 prepared for this purpose. Of note, control wells containing only culture media are present on all plates 112. This allows for evaluation of pathogen load when no antimicrobial is present.
(§6) Specimen Exposure to Antimicrobial Agents. The 1 mL aliquot of the specimen 100 previously mixed with culture media and incubated is obtained. Using optical density measurements as a guide, the specimen 100 is diluted to 0.5 McFarland. […]

Escherichia coli = assay: Traditional culture-based antimicrobial susceptibility test; assay type: cell-based
From the text: Table 3 illustrates the results of an example antimicrobial agent susceptibility test of the current application versus a traditional culture-based antimicrobial agent susceptibility test for multiple Escherichia coli isolates, in accordance with one or more embodiments of the disclosure. These specimens underwent extraction or DNA purification prior to PCR. As in Tables 1 and 2, the results of the test of the current application are similar to the results from the traditional test. […]
Table 8 illustrates the results of an example antimicrobial agent susceptibility test of the current application versus a traditional culture-based antimicrobial agent susceptibility test for a low level positive with <10,000 cells/mL in the original specimen. These specimens were tested with direct PCR (e.g., no extraction DNA purification step prior to PCR) after 16 hours of incubation. As in Tables 1, 2, 3, 5, and 7, the results of the test are similar to the traditional test. […]

E. coli = assay: Molecular phenotypic antimicrobial susceptibility test, specimen with two detected pathogens incubated together without isolation; assay type: cell-based, Escherichia coli; details: E. coli in specimen with two detected pathogens (E. coli and M. morganii) incubated together; for Ct of Sensitive Breakpoint: Ct of controls (average) 15.93; for Molecular Antimicrobial Susceptibility Result: at sensitive breakpoint
Procedure: as §1, §2, §3, §4, §5, §6

Acinetobacter baumannii = assay: Traditional culture-based antimicrobial susceptibility test; assay type: cell-based
From the text: Table 2 illustrates the results of an example antimicrobial agent susceptibility test of the current application versus a traditional culture-based antimicrobial agent susceptibility test for […], in accordance with one or more embodiments of the disclosure. This specimen underwent extraction and/or DNA purification prior to PCR. As in Table 1, the results of the test of the current application are similar to the results from the traditional test.
Result Reporting to Healthcare Providers. The results from the antimicrobial exposure are reported to the ordering healthcare provider. This information can be utilized by the healthcare provider when selecting an antimicrobial regimen for their individual patient based on these individual specimen results and patient specific factors. […] The current standard of care for antimicrobial susceptibility testing involves the growth, isolation, and exposure of pathogens to antimicrobials. This traditional culture and sensitivity process can take multiple days to obtain results, limiting the ability of healthcare providers to receive timely results to make actionable changes in patient care or management. Healthcare providers desire a method to obtain antimicrobial susceptibility results with quicker turn-around-time. This application discloses a molecular-based phenotypic antimicrobial susceptibility method which involves pathogen exposure to a panel of antimicrobial agents at their specified minimum inhibitory concentration breakpoints for sensitivity. This method allows for more timely antimicrobial susceptibility results.

[1] = E. coli #1 - WDCM 00090 - 6.2×E3
[2] = E. coli #2 - WDCM 00090 - 6.2×E3

| SMILES | Ct of Sensitive Breakpoint (M. morganii) | Molecular Antimicrobial Susceptibility Result (M. morganii) | Traditional Culture Results (Escherichia coli; [1]) | Traditional Culture Results (Escherichia coli; [2]) | Traditional Culture Result (Escherichia coli; E. coli isolate 4 (Table 3)) | Traditional Culture Result (Escherichia coli; E. coli isolate 5 (Table 3)) | Traditional Culture Result (Escherichia coli; E. coli isolate JJ1887) | Ct of Sensitive Breakpoint (E. coli) | Molecular Antimicrobial Susceptibility Result (E. coli) | Traditional Culture Result (Escherichia coli; E. coli isolate 1 (Table 3)) | Traditional Culture Result (Escherichia coli; E. coli isolate 2 (Table 3)) | Traditional Culture Result (Escherichia coli; E. coli isolate 3 (Table 3)) | Traditional Culture Result (Acinetobacter baumannii; A. baumannii isolate 1) | Traditional Culture Result (Acinetobacter baumannii; A. baumannii isolate 2) | Traditional Culture Result (Acinetobacter baumannii; A. baumannii isolate 3) | Traditional Culture Result (Acinetobacter baumannii; A. baumannii isolate 4) | Traditional Culture Result (Acinetobacter baumannii; A. baumannii isolate 5) |
| --- | --- | --- | --- | --- | --- | --- | --- | --- | --- | --- | --- | --- | --- | --- | --- | --- | --- |
| CC1(C)S[C@@H]2[C@H](NC(=O)[C@H](N)c3ccccc3)C(=O)N2[C@H]1C(=O)O [Ampicillin] | 20.73 | Resistant | Sensitive | Sensitive | Resistant | Sensitive | Resistant | 15.14 | Resistant |  |  |  |  |  |  |  |  |
| Cc1nnc(SCC2=C(C(=O)O)N3C(=O)[C@@H](NC(=O)Cn4cnnn4)[C@H]3SC2)s1 [Cefazolin] | 21.60 | Resistant | Sensitive | Sensitive | Resistant | Sensitive | Resistant | 15.46 | Resistant | Resistant | Resistant | Resistant |  |  |  |  |  |
| CO/N=C(\C(=O)N[C@@H]1C(=O)N2C(C(=O)[O-])=C(C[N+]3(C)CCCC3)CS[C@H]12)c1csc(N)n1 [Cefepime] | 29.72 | Sensitive (Antimicrobial wells with pathogen load detected below the control wells (typically >2 cycle thresholds later) may be reported as Sensitive) |  |  | Resistant | Sensitive | Resistant | 26.80 | Sensitive (Antimicrobial wells with pathogen load detected below the control wells (typically >2 cycle thresholds later) may be reported as Sensitive) |  |  |  | Resistant | Resistant | Sensitive | Resistant | Resistant |
| CO[C@@]1(NC(=O)Cc2cccs2)C(=O)N2C(C(=O)O)=C(COC(N)=O)CS[C@@H]21 [Cefoxitin] | 23.01 | Sensitive (Antimicrobial wells with pathogen load detected below the control wells (typically >2 cycle thresholds later) may be reported as Sensitive) |  |  | Sensitive | Sensitive |  | 18.30 | Sensitive (Antimicrobial wells with pathogen load detected below the control wells (typically >2 cycle thresholds later) may be reported as Sensitive) |  |  |  |  |  |  |  |  |
| CO/N=C(\C(=O)N[C@@H]1C(=O)N2C(C(=O)O)=C(CSc3nc(=O)c(=O)[nH]n3C)CS[C@H]12)c1csc(N)n1 [Ceftriaxone] | 30.03 | Sensitive (Antimicrobial wells with pathogen load detected below the control wells (typically >2 cycle thresholds later) may be reported as Sensitive) | Sensitive | Sensitive | Resistant | Sensitive | Resistant | 28.57 | Sensitive (Antimicrobial wells with pathogen load detected below the control wells (typically >2 cycle thresholds later) may be reported as Sensitive) | Resistant | Resistant | Resistant | Resistant | Resistant | Resistant | Resistant | Resistant |
| C[C@@H]1O[C@@H]1P(=O)(O)O [Fosfomycin] | 33.43 | Sensitive (Antimicrobial wells with pathogen load detected below the control wells (typically >2 cycle thresholds later) may be reported as Sensitive) | Sensitive | Sensitive |  |  |  | 29.24 | Sensitive (Antimicrobial wells with pathogen load detected below the control wells (typically >2 cycle thresholds later) may be reported as Sensitive) |  |  |  |  |  |  |  |  |
| C[C@H]1COc2c(N3CCN(C)CC3)c(F)cc3c(=O)c(C(=O)O)cn1c23 [Levofloxacin] | 29.62 | Sensitive (Antimicrobial wells with pathogen load detected below the control wells (typically >2 cycle thresholds later) may be reported as Sensitive) |  |  |  |  |  | 32.72 | Sensitive (Antimicrobial wells with pathogen load detected below the control wells (typically >2 cycle thresholds later) may be reported as Sensitive) |  |  |  |  |  |  |  |  |
| O=C1CN(/N=C/c2ccc([N+](=O)[O-])o2)C(=O)N1 [Nitrofurantoin] | 33.37 | Sensitive (Antimicrobial wells with pathogen load detected below the control wells (typically >2 cycle thresholds later) may be reported as Sensitive) |  |  |  |  |  | 27.36 | Sensitive (Antimicrobial wells with pathogen load detected below the control wells (typically >2 cycle thresholds later) may be reported as Sensitive) |  |  |  |  |  |  |  |  |
| CN(C)[C@@H]1C(O)=C(C(N)=O)C(=O)[C@@]2(O)C(O)=C3C(=O)c4c(O)cccc4[C@@](C)(O)[C@H]3C[C@@H]12 [Tetracycline] | 31.64 | Sensitive (Antimicrobial wells with pathogen load detected below the control wells (typically >2 cycle thresholds later) may be reported as Sensitive) |  |  |  |  |  | 14.55 | Resistant |  |  |  |  |  |  |  |  |
